From PubChem BioAssay AID330 (DTP/NCI, 2004)
Several values for one entry are separate records, joined by “and”; a condition that tells them apart may be missing. Identical values can stand only once. Inconclusive results and toxic doses are left out.

Tested on: P388 leukemia ip, CD2F1 mice, survival T/C
Test: NCI In Vivo Anticancer Drug Screen. Data for tumor model P388 Leukemia (intraperitoneal) in CD2F1 (CDF1) mice
Details: endpoint: median survival time, higher = longer survival
Procedure, shortened: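 Mice carrying the transplanted tumor received test compound or vehicle. Survival was recorded in each group, and the value is the treated-group measurement divided by that of the vehicle-treated control group.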

[1] = dose: 100.0 mg/kg/injection, schedule: Q01DX009 (ip), vehicle: saline with Tween-80
[2] = dose: 400.0 mg/kg/injection, schedule: Q04DX003 (ip), vehicle: saline with Tween-80
[3] = dose: 60.0 mg/kg/injection, schedule: Q01DX005 (ip), vehicle: Klucel (hydroxypropylcellulose) (HPC)
[4] = dose: 120.0 mg/kg/injection, schedule: Q01DX005 (ip), vehicle: Klucel (hydroxypropylcellulose) (HPC)
[5] = dose: 0.78 mg/kg/injection, schedule: Q01DX009 (ip), vehicle: saline
[6] = dose: 1.56 mg/kg/injection, schedule: Q01DX009 (ip), vehicle: saline
[7] = dose: 3.12 mg/kg/injection, schedule: Q01DX009 (ip), vehicle: saline
[8] = dose: 240.0 mg/kg/injection, schedule: Q01DX005 (ip), vehicle: Klucel (hydroxypropylcellulose) (HPC)
[9] = dose: 60.0 mg/kg/injection, schedule: Q01DX005 (ip), vehicle: saline with Tween-80
[10] = dose: 120.0 mg/kg/injection, schedule: Q01DX005 (ip), vehicle: saline with Tween-80
[11] = dose: 240.0 mg/kg/injection, schedule: Q01DX005 (ip), vehicle: saline with Tween-80
[12] = dose: 100.0 mg/kg/injection, schedule: Q01DX001 (ip), vehicle: saline with Tween-80
[13] = dose: 200.0 mg/kg/injection, schedule: Q01DX001 (ip), vehicle: saline with Tween-80
[14] = dose: 400.0 mg/kg/injection, schedule: Q01DX001 (ip), vehicle: saline with Tween-80

Structure (SMILES): CCCCCCCOC(=O)c1ccc(O)cc1
- T/C (dose: 12.5 mg/kg/injection, schedule: Q01DX009 (ip), vehicle: saline with Tween-80): 105 % of control
- T/C (dose: 25.0 mg/kg/injection, schedule: Q01DX009 (ip), vehicle: saline with Tween-80): 100 % of control
- T/C (dose: 50.0 mg/kg/injection, schedule: Q01DX009 (ip), vehicle: saline with Tween-80): 99 % of control and 96 % of control
- T/C [1]: 95 % of control

Structure (SMILES): c1ccc2c(c1)/C(=N/c1nccs1)N/C2=N\c1nccs1
- T/C (dose: 100.0 mg/kg/injection, schedule: Q04DX003 (ip), vehicle: saline with Tween-80): 97 % of control
- T/C (dose: 200.0 mg/kg/injection, schedule: Q04DX003 (ip), vehicle: saline with Tween-80): 93 % of control
- T/C [2]: 91 % of control

Structure (SMILES): CCNC(=O)OCc1cnc(C)c(O)c1COC(=O)NCC
- T/C (dose: 25.0 mg/kg/injection, schedule: Q01DX005 (ip), vehicle: saline with Tween-80): 102 % of control
- T/C (dose: 50.0 mg/kg/injection, schedule: Q01DX005 (ip), vehicle: saline with Tween-80): 100 % of control
- T/C (dose: 100.0 mg/kg/injection, schedule: Q01DX005 (ip), vehicle: saline with Tween-80): 99 % of control

Structure (SMILES): Cc1nc(N)[nH]c(=O)c1CCCCC#N
- T/C [3]: 104 % of control
- T/C [4]: 104 % of control

Structure (SMILES): CC[CH](C)[Sn](=[O])[CH](C)CC (stereo unspecified)
- T/C [5]: 97 % of control
- T/C [6]: 105 % of control
- T/C [7]: 113 % of control

Structure (SMILES): O=C1C2=C(Nc3ccccc3N2)OC1c1ccncc1 (stereo unspecified)
- T/C [3]: 93 % of control
- T/C [4]: 93 % of control
- T/C [8]: 88 % of control

Structure (SMILES): CCOC(=O)C1=C(C)N(C)C(C)=C(C(=O)OCC)C1
- T/C [9]: 108 % of control
- T/C [10]: 100 % of control
- T/C [11]: 101 % of control

Structure (SMILES): O=C(Nc1ccc(C2=NCCN2)cc1)c1ccc(C(=O)Nc2ccc(C3=NCCN3)cc2)c(F)c1
- T/C (dose: 12.5 mg/kg/injection, schedule: Q04DX003 (ip), vehicle: saline with Tween-80): 109 % of control
- T/C (dose: 25.0 mg/kg/injection, schedule: Q04DX003 (ip), vehicle: saline with Tween-80): 122 % of control
- T/C [1]: 181 % of control
- T/C (dose: 200.0 mg/kg/injection, schedule: Q01DX009 (ip), vehicle: saline with Tween-80): 250 % of control
- T/C (dose: 264.0 mg/kg/injection, schedule: Q04DX003 (ip), vehicle: saline with Tween-80): 200 % of control
- T/C (dose: 400.0 mg/kg/injection, schedule: Q01DX009 (ip), vehicle: saline with Tween-80): 272 % of control
- T/C [2]: 245 % of control
- T/C (dose: 600.0 mg/kg/injection, schedule: Q04DX003 (ip), vehicle: saline with Tween-80): 259 % of control

Structure (SMILES): O=CC(NC(=O)N(CCCl)N=O)C(O)C(O)C(O)CO (stereo unspecified)
- T/C [5]: 156 % of control
- T/C (dose: 1.5 mg/kg/injection, schedule: Q01DX005 (ip), vehicle: water): 158 % of control
- T/C (dose: 1.5 mg/kg/injection, schedule: Q04DX003 (ip), vehicle: saline): 153 % of control
- T/C [6]: 195 % of control
- T/C (dose: 3.0 mg/kg/injection, schedule: Q01DX005 (ip), vehicle: saline): 169 % of control
- T/C (dose: 3.0 mg/kg/injection, schedule: Q01DX005 (ip), vehicle: water): 163 % of control and 187 % of control
- T/C (dose: 3.0 mg/kg/injection, schedule: Q04DX003 (ip), vehicle: saline): 174 % of control
- T/C [7]: 263 % of control
- T/C (dose: 4.32 mg/kg/injection, schedule: Q04DX002 (ip), vehicle: saline): 166 % of control
- T/C (dose: 6.0 mg/kg/injection, schedule: Q01DX001 (ip), vehicle: saline): 157 % of control
- T/C (dose: 6.0 mg/kg/injection, schedule: Q01DX001 (iv), vehicle: saline): 109 % of control
- T/C (dose: 6.0 mg/kg/injection, schedule: Q01DX005 (ip), vehicle: saline): 205 % of control
- T/C (dose: 6.0 mg/kg/injection, schedule: Q01DX005 (ip), vehicle: water): 199 % of control and 264 % of control
- T/C (dose: 6.0 mg/kg/injection, schedule: Q01DX005 (iv), vehicle: saline): 192 % of control
- T/C (dose: 6.0 mg/kg/injection, schedule: Q04DX003 (ip), vehicle: saline): 205 % of control
- T/C (dose: 7.2 mg/kg/injection, schedule: Q04DX002 (ip), vehicle: saline): 169 % of control
- T/C (dose: 12.0 mg/kg/injection, schedule: Q01DX001 (ip), vehicle: saline): 212 % of control
- T/C (dose: 12.0 mg/kg/injection, schedule: Q01DX005 (ip), vehicle: saline): 258 % of control
- T/C (dose: 12.0 mg/kg/injection, schedule: Q01DX005 (ip), vehicle: water): 265 % of control and 91 % of control
- T/C (dose: 12.0 mg/kg/injection, schedule: Q01DX005 (iv), vehicle: saline): 119 % of control
- T/C (dose: 12.0 mg/kg/injection, schedule: Q04DX002 (ip), vehicle: saline): 212 % of control
- T/C (dose: 12.0 mg/kg/injection, schedule: Q04DX003 (ip), vehicle: saline): 285 % of control and 371 % of control and 401 % of control
- T/C (dose: 18.0 mg/kg/injection, schedule: Q04DX003 (ip), vehicle: saline): 153 % of control and 175 % of control
- T/C (dose: 20.0 mg/kg/injection, schedule: Q04DX002 (ip), vehicle: saline): 287 % of control
- T/C (dose: 24.0 mg/kg/injection, schedule: Q01DX001 (ip), vehicle: saline): 277 % of control
- T/C (dose: 24.0 mg/kg/injection, schedule: Q01DX001 (iv), vehicle: saline): 166 % of control
- T/C (dose: 27.0 mg/kg/injection, schedule: Q04DX003 (ip), vehicle: saline): 96 % of control
- T/C (dose: 40.0 mg/kg/injection, schedule: Q04DX003 (ip), vehicle: saline): 74 % of control and 98 % of control

Structure (SMILES): Cc1ccc(-n2c(O)c(N=Nc3ccccc3Cl)c(=O)n(-c3ccc(Br)cc3)c2=S)cc1
- T/C [12]: 98 % of control
- T/C [13]: 101 % of control
- T/C [14]: 96 % of control

Structure (SMILES): COC(=O)CCN1CCCC1CC(O)/C=C/c1ccccc1 (stereo unspecified)
- T/C [12]: 93 % of control
- T/C [13]: 100 % of control
- T/C [14]: 106 % of control

Structure (SMILES): Cc1nn(C(=O)c2ccncc2)c(C)c1N=Nc1ccc([N+](=O)[O-])cc1
- T/C (dose: 50.0 mg/kg/injection, schedule: Q01DX009 (ip), vehicle: Klucel (hydroxypropylcellulose) (HPC)): 92 % of control
- T/C (dose: 100.0 mg/kg/injection, schedule: Q01DX009 (ip), vehicle: Klucel (hydroxypropylcellulose) (HPC)): 93 % of control

Structure (SMILES): O=CN1CCCc2cc(C(=O)O)ccc21
- T/C (dose: 50.0 mg/kg/injection, schedule: Q01DX001 (ip), vehicle: saline sonified): 100 % of control
- T/C (dose: 100.0 mg/kg/injection, schedule: Q01DX001 (ip), vehicle: saline sonified): 100 % of control
- T/C (dose: 200.0 mg/kg/injection, schedule: Q01DX001 (ip), vehicle: saline sonified): 105 % of control

Structure (SMILES): Cn1c2c([N+](=O)[O-])cccc2c(=O)c2c(O)cc3c(c21)C=CC(C)(C)O3
- T/C [12]: 108 % of control
- T/C [13]: 110 % of control

Structure (SMILES): CC1=CC(O/C=C2\C(=O)OC3c4ccccc4CC23)OC1=O (stereo unspecified)
- T/C (dose: 50.0 mg/kg/injection, schedule: Q01DX009 (ip), vehicle: suspension in saline): 101 % of control
- T/C (dose: 100.0 mg/kg/injection, schedule: Q01DX009 (ip), vehicle: suspension in saline): 108 % of control
- T/C (dose: 200.0 mg/kg/injection, schedule: Q01DX009 (ip), vehicle: suspension in saline): 92 % of control

Structure (SMILES): CCOC(=O)CN1CCC(C(=O)OC)CC1
- T/C (dose: 100.0 mg/kg/injection, schedule: Q04DX003 (ip), vehicle: saline): 100 % of control
- T/C (dose: 200.0 mg/kg/injection, schedule: Q04DX003 (ip), vehicle: saline): 100 % of control
- T/C (dose: 400.0 mg/kg/injection, schedule: Q04DX003 (ip), vehicle: saline): 100 % of control

Structure (SMILES): COc1cccc2c1S(=O)(=O)C(c1ccccc1)=CC2=O
- T/C [3]: 105 % of control
- T/C [4]: 105 % of control
- T/C [8]: 120 % of control

Structure (SMILES): CCCCOC1NC(=O)NC(=O)C1(F)C(=O)OCC (stereo unspecified)
- T/C [9]: 108 % of control
- T/C [10]: 117 % of control
- T/C [11]: 121 % of control

Structure (SMILES): O=P(CCP(=O)(c1ccccc1)c1ccccc1)(c1ccccc1)c1ccccc1.[Cl][Sn]([Cl])([c]1ccccc1)[c]1ccccc1
- T/C (dose: 0.79 mg/kg/injection, schedule: Q01DX005 (ip), vehicle: Klucel (hydroxypropylcellulose) (HPC)): 116 % of control and 117 % of control
- T/C (dose: 1.56 mg/kg/injection, schedule: Q01DX005 (ip), vehicle: Klucel (hydroxypropylcellulose) (HPC)): 114 % of control and 119 % of control
- T/C (dose: 3.12 mg/kg/injection, schedule: Q01DX005 (ip), vehicle: Klucel (hydroxypropylcellulose) (HPC)): 111 % of control and 119 % of control
- T/C (dose: 6.25 mg/kg/injection, schedule: Q01DX005 (ip), vehicle: Klucel (hydroxypropylcellulose) (HPC)): 113 % of control
